Results on five compounds are retold here after PubChem BioAssay AID1224898.

The test has as its system Trichuris muris adults ex vivo, WormWatcher motility, 24 h. The test is described as follows: motility loss in adult Trichuris muris, dose response, whole organism, ex vivo, WormWatcher (AID 1224898).

Take `Cc1ccc(CN2C(=O)COCc3cc(-c4cccnc4)ccc32)cc1`: the EC50 was 57 µM.
The value for `O=C1COCc2cc(-c3cccnc3)ccc2N1Cc1ccc(C(F)(F)F)cc1` was 26 µM; that for `Cc1ccc(CN2C(=O)COCc3cc(-c4ccncc4)ccc32)cc1` was 50 µM.
Turning to `O=C1COCc2cc(-c3cccnc3)ccc2N1CC1CCCCC1`, the EC50 is 52 µM.
The value for `Cc1ccc(CN2C(=O)COCc3cc(Br)ccc32)cc1` was 35 µM.
